The results in this text go back to PubChem BioAssay (NCI).

Some test systems named below: HOP-92 NSCLC; HS 578T breast; SK-MEL-2 melanoma; COLO 205 colon; HOP-62 NSCLC; IGROV1 ovarian; LOX IMVI melanoma; MALME-3M melanoma; NCI/ADR-RES ovarian; RXF 393 renal.
What all share (experiment): DTP human tumour cell line panel, 48 h

Molecules are shown by their SMILES.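 Method: 48-hour compound exposure of cells in 96-well plates, five concentrations, linear interpolation of endpoints. GI50 = concentration required for 50% inhibition of growth. TGI: concentration producing complete growth inhibition.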

By GI50 is commonly meant the concentration at which growth is held to half of that of the control. Usually TGI stands for the concentration at which net growth stops. Read a high TGI as less potent growth arrest. Consider `CO[C@]1(CN2CCN3CCCC[C@@H]3C2)/C=C/C[C@H](C)[C@@H](C)S(=O)(=O)NC(=O)c2ccc3c(c2)N(C[C@@H]2CC[C@H]21)C[C@@]1(CCCc2cc(Cl)ccc21)CO3`, for which the results for the GI50 with HOP-92 NSCLC, in the experiment with HS 578T breast and with SK-MEL-2 melanoma were 1.67 µM, 1.18 µM and 0.0454 µM, respectively. The TGI in the experiment with HOP-92 NSCLC came to 3.46 µM; with HS 578T breast, 3.57 µM; in the experiment with SK-MEL-2 melanoma, 0.183 µM.

With `CC(=O)O[C@H]1CC[C@@]2(C)[C@H](CC[C@@H]3[C@@H]2CC[C@]2(C)[C@@H](c4ccc(=O)oc4)C[C@H]4O[C@]342)C1`, the TGI in the experiment with COLO 205 colon came to 14.2 µM; in the experiment on HOP-62 NSCLC, 2.06 µM; in the experiment on HOP-92 NSCLC it was 3.67 µM; with IGROV1 ovarian it was 11.3 µM; with LOX IMVI melanoma, 7.67 µM; in the experiment with MALME-3M melanoma it was 2.61 µM. Moreover, the TGI in the experiment on NCI/ADR-RES ovarian came out at 3.82 µM; in the experiment with RXF 393 renal, 0.673 µM; with SK-MEL-2 melanoma, 6.49 µM.

As for `CC(=O)CC(=O)CCC(=O)O`, the TGI in the experiment on COLO 205 colon, with IGROV1 ovarian, in the experiment with LOX IMVI melanoma, with MALME-3M melanoma, in the experiment with RXF 393 renal and in the experiment with SK-MEL-2 melanoma was above 100 µM each time.

Regarding `CCOP(=O)(OCC)/C(C#N)=C/c1cccn1Cc1ccccc1`, the TGI in the experiment with COLO 205 colon is 44.5 µM; with HOP-62 NSCLC, above 100 µM; in the experiment on HOP-92 NSCLC it was 36.9 µM; in the experiment with IGROV1 ovarian it was above 100 µM; in the experiment with LOX IMVI melanoma it was 53 µM; in the experiment on MALME-3M melanoma, above 100 µM. Also, the values for the TGI in the experiment with NCI/ADR-RES ovarian, with RXF 393 renal and with SK-MEL-2 melanoma were above 100 µM, above 100 µM and 47.8 µM, respectively.

As to `C=CC1CN2CCC1CC2C(O)c1ccnc2ccccc12` (configuration not stated), the TGI in the experiment with COLO 205 colon, in the experiment with HOP-62 NSCLC, in the experiment on IGROV1 ovarian, with LOX IMVI melanoma, with MALME-3M melanoma and in the experiment with NCI/ADR-RES ovarian was above 100 µM in each case. In addition, the TGI in the experiment on RXF 393 renal and in the experiment on SK-MEL-2 melanoma was above 100 µM each time. The GI50 in the experiment on HOP-62 NSCLC was above 100 µM; in the experiment with IGROV1 ovarian, above 100 µM; with LOX IMVI melanoma it was above 100 µM; in the experiment on MALME-3M melanoma it was 0.0846 µM.

On to `C=C(C)[C@@H]1CC[C@]2(C(=O)O)CC[C@]3(C)[C@H](CCC4[C@@]5(C)CC[C@H](C(=O)/C=C/c6ccc(O)c(O)c6)C(C)(C)[C@@H]5CC[C@]43C)[C@@H]12` (some centres not stated), for which the TGI with COLO 205 colon is 13.8 µM; in the experiment on HOP-62 NSCLC it was 17 µM; in the experiment with HS 578T breast, 46.2 µM; in the experiment on IGROV1 ovarian, above 100 µM; in the experiment with LOX IMVI melanoma, above 100 µM; in the experiment on NCI/ADR-RES ovarian, above 100 µM. Also, the TGI in the experiment with RXF 393 renal was above 100 µM; with SK-MEL-2 melanoma, 38 µM.

Turning to `O=C1C=CC(=O)c2c(Cl)ccc(O)c21`, the TGI is 25.8 µM in the experiment on COLO 205 colon; above 100 µM in the experiment with HOP-62 NSCLC; 6.96 µM in the experiment on HOP-92 NSCLC; 21 µM in the experiment on IGROV1 ovarian; 37.2 µM in the experiment with LOX IMVI melanoma; 32.7 µM with MALME-3M melanoma. The TGI worked out at 42.1 µM in the experiment with NCI/ADR-RES ovarian, 29.7 µM with RXF 393 renal and 97.5 µM in the experiment on SK-MEL-2 melanoma.

On to `CC1CC/C(=C\c2ccc(Cl)cc2)c2nc(N)c(C#N)c(-c3ccc(Cl)cc3)c21` (configuration not stated), for which the TGI in the experiment on COLO 205 colon is above 100 µM; in the experiment on HOP-62 NSCLC, above 100 µM; with IGROV1 ovarian, above 100 µM; in the experiment with LOX IMVI melanoma, above 100 µM; in the experiment on MALME-3M melanoma it was 62 µM; in the experiment with NCI/ADR-RES ovarian, above 100 µM. For the same compound, the TGI in the experiment on SK-MEL-2 melanoma is above 100 µM.

As for `CCOC(=O)c1cn(C)c(=S)n2c1nc1ccccc12`, the TGI in the experiment on COLO 205 colon, in the experiment with HOP-62 NSCLC, in the experiment with HOP-92 NSCLC, with IGROV1 ovarian, in the experiment with LOX IMVI melanoma and with NCI/ADR-RES ovarian was above 100 µM in each case. Also, the TGI with RXF 393 renal and in the experiment with SK-MEL-2 melanoma was above 100 µM in each case.

As to `O=C(NNCc1ccc(Cl)cc1)Nc1cccc2ccccc12`, the TGI in the experiment on COLO 205 colon, in the experiment with HOP-62 NSCLC, in the experiment on HOP-92 NSCLC, in the experiment with IGROV1 ovarian, in the experiment with LOX IMVI melanoma and with MALME-3M melanoma was above 100 µM in each case. The TGI in the experiment with NCI/ADR-RES ovarian, in the experiment with RXF 393 renal and in the experiment on SK-MEL-2 melanoma was above 100 µM throughout.

With `Cc1csc(NC(=NCCN2CCOCC2)Nc2nc(C)cs2)n1`, the TGI in the experiment on COLO 205 colon, with HOP-62 NSCLC, in the experiment with HOP-92 NSCLC, with IGROV1 ovarian, in the experiment on LOX IMVI melanoma and with MALME-3M melanoma was above 100 µM each time. Moreover, the TGI in the experiment on NCI/ADR-RES ovarian, with RXF 393 renal and in the experiment with SK-MEL-2 melanoma was above 100 µM in each case.

`CC1OC2OC3C(OCC(O)C3O)OC(=O)[C@]34CCC(C)(C)CC3C3=CCC5[C@@]6(C)C[C@H](O)[C@H](OC7OC(CO)C(O)C(O)C7OC7OCC(OC(=O)CC(C)(O)CC(=O)OC1C(OC1OC(CO)C(O)C(O)C1O)C2O)C(O)C7O)[C@@](C)(CO)C6CC[C@@]5(C)[C@]3(C)CC4` (some centres not stated): the TGI is 7.61 µM in the experiment with COLO 205 colon; 8.75 µM in the experiment with HOP-62 NSCLC; 21.6 µM with HOP-92 NSCLC; 30.1 µM in the experiment on HS 578T breast; 16.2 µM in the experiment on IGROV1 ovarian; 20.6 µM with LOX IMVI melanoma. The TGI in the experiment on MALME-3M melanoma came to 17.5 µM; with NCI/ADR-RES ovarian, 19.1 µM; with SK-MEL-2 melanoma, 13.5 µM.

In the case of `COc1ccccc1CNCCCCCCCCCCCCN1C(=O)c2ccc3c4c(ccc(c24)C1=O)C(=O)N(CCCCCCCCCCCCNCc1ccccc1OC)C3=O`, the GI50 in the experiment with COLO 205 colon is above 50 µM; in the experiment on HOP-62 NSCLC, 3.64 µM; in the experiment on IGROV1 ovarian, above 50 µM; with MALME-3M melanoma, above 50 µM; in the experiment on RXF 393 renal, 0.922 µM; in the experiment with SK-MEL-2 melanoma it was 1.99 µM. Besides, the TGI in the experiment on COLO 205 colon is above 50 µM; with HOP-62 NSCLC it was above 50 µM; in the experiment on IGROV1 ovarian, above 50 µM; in the experiment with MALME-3M melanoma, above 50 µM; in the experiment on RXF 393 renal, 2.11 µM; in the experiment with SK-MEL-2 melanoma, above 50 µM.

`NC(=O)CO/N=C1/C(c2c(O)[nH]c3ccccc23)=Nc2ccccc21`: the TGI in the experiment with COLO 205 colon, in the experiment on HOP-62 NSCLC, in the experiment on HOP-92 NSCLC, in the experiment with HS 578T breast, with IGROV1 ovarian and in the experiment with LOX IMVI melanoma was above 100 µM throughout. The TGI in the experiment on MALME-3M melanoma, with NCI/ADR-RES ovarian and in the experiment on SK-MEL-2 melanoma was above 100 µM throughout.
